Reference: PMC11012124, “Synthesis of Novel Triazine-Based Chalcones and 8,9-dihydro-7H-pyrimido[4,5-b][1,4]diazepines as Potential Leads in the Search of Anticancer, Antibacterial and Antifungal Agents” (International Journal of Molecular Sciences, 2024)

What was measured:
NCI-H226 = test: cells; settings: Homo sapiens, NCI-H226, 48 h
OVCAR-3 = test: cells; settings: Homo sapiens, OVCAR-3, 48 h
MDA-MB-435 = test: cells; settings: Homo sapiens, MDA-MB-435, 48 h
UACC-62 = test: cells; settings: Homo sapiens, UACC-62, 48 h
M14 = test: cells; settings: Homo sapiens, M14, 48 h
U251 = test: cells; settings: Homo sapiens, U-251, 48 h
HS 578T = test: cells; settings: Homo sapiens, 48 h
EKVX = test: cells; settings: Homo sapiens, 48 h
MDA-MB-231/ATCC = test: cells; settings: Homo sapiens, MDA-MB-231, 48 h
UACC-257 = test: cells; settings: Homo sapiens, UACC-257, 48 h
OVCAR-5 = test: cells; settings: Homo sapiens, OVCAR-5, 48 h
SF-268 = test: cells; settings: Homo sapiens, SF-268, 48 h
MCF7 = test: cells; settings: Homo sapiens, MCF7, 48 h
HL-60(TB) = test: cells; settings: Homo sapiens, HL-60, 48 h
DU-145 = test: cells; settings: Homo sapiens, DU-145, 48 h
T-47D = test: cells; settings: Homo sapiens, T47D, 48 h
BT-549 = test: cells; settings: Homo sapiens, BT-549, 48 h
A498 = test: cells; settings: Homo sapiens, A498, 48 h, read-out: LC50
SN12C = test: cells; settings: Homo sapiens, 48 h
RPMI-8226 = test: cells; settings: Homo sapiens, RPMI-8226, 48 h
OVCAR-8 = test: cells; settings: Homo sapiens, OVCAR-8, 48 h
NCI-H322M = test: cells; settings: Homo sapiens, 48 h
HT29 = test: cells; settings: Homo sapiens, HT-29, 48 h
[1] = Hemolytic activity, spectrophotometric; format: cell-based, human; settings: human, human red blood cells (huRBC), 5% hematocrit, 200 μg/mL, 37 °C
LOX IMVI = test: cells; settings: Homo sapiens, 48 h
CCRF-CEM = test: cells; settings: Homo sapiens, 48 h
ACHN = test: cells; settings: Homo sapiens, 48 h
HCT-116 = test: cells; settings: Homo sapiens, HCT-116, 48 h
OVCAR-4 = test: cells; settings: Homo sapiens, OVCAR-4, 48 h
MOLT-4 = test: cells; settings: Homo sapiens, MOLT-4, 48 h
SF-539 = test: cells; settings: Homo sapiens, SF-539, 48 h
SF-295 = test: cells; settings: Homo sapiens, SF-295, 48 h
60 cancer cell lines = test: NCI-60 one-dose screen (10 μM); format: cell-based; settings: Homo sapiens; one dose of 10 μM, mean over 60 cancer cell lines; read-out: Mean Growth Percent (MGP)
Description: Additionally, the mean of the growth percentages (MGP) of each compound against all the 60 cancer cell lines is also reported, which is used as one of the selection criteria to continue with tests at five concentration doses.

MALME-3M = test: cells; settings: Homo sapiens, 48 h
COLO 205 = test: cells; settings: Homo sapiens, COLO 205, 48 h
UO-31 = test: cells; settings: Homo sapiens, UO-31, 48 h
PC-3 = test: cells; settings: Homo sapiens, PC-3, 48 h
HOP-62 = test: cells; settings: Homo sapiens, HOP-62, 48 h

With CN(C)c1nc(NCCNS(=O)(=O)c2ccc(C3=Nc4c(N)nc(N)nc4NC(c4ccccc4)C3)cc2)nc(Nc2ccc(F)cc2)n1 (stereo not shown) [31a] the GI50 (NCI-H226) was greater than 100 µM, the CC50 (NCI-H226; read-out: LC50) was greater than 100 µM and the GI50 (OVCAR-3) was 69.3 µM. The CC50 (OVCAR-3; read-out: LC50) was greater than 100 µM, the GI50 (MDA-MB-435) was 15 µM and the CC50 (MDA-MB-435; read-out: LC50) was greater than 100 µM. It also gave a GI50 (UACC-62) of 31.5 µM, a CC50 (UACC-62; read-out: LC50) greater than 100 µM and a GI50 (M14) of 24.4 µM. The CC50 (M14; read-out: LC50) was greater than 100 µM, the GI50 (U251; U251, 48 h) was 18.4 µM and the CC50 (U251; read-out: LC50) was greater than 100 µM. For the same compound, the GI50 (HS 578T) was 6.43 µM, the CC50 (HS 578T; read-out: LC50) was greater than 100 µM and the GI50 (EKVX) was 6.65 µM. The CC50 (EKVX; read-out: LC50) was greater than 100 µM, the GI50 (MDA-MB-231/ATCC) was 6.16 µM and the CC50 (MDA-MB-231/ATCC; read-out: LC50) was 67.6 µM. The GI50 (UACC-257) was 87.2 µM, the CC50 (UACC-257; read-out: LC50) was greater than 100 µM and the GI50 (OVCAR-5) was greater than 100 µM. The CC50 (OVCAR-5; read-out: LC50) was greater than 100 µM, the GI50 (SF-268) was 9.85 µM and the CC50 (SF-268; read-out: LC50) was greater than 100 µM. For the same compound, the GI50 (MCF7) was 3.85 µM, the CC50 (MCF7; read-out: LC50) was 85.5 µM and the GI50 (HL-60(TB)) was 4.24 µM. For the same compound, the CC50 (HL-60(TB); read-out: LC50) was greater than 100 µM, the GI50 (DU-145) was greater than 100 µM and the CC50 (DU-145; read-out: LC50) was greater than 100 µM. It also gave a GI50 (T-47D) of 5.12 µM, a CC50 (T-47D; read-out: LC50) greater than 100 µM and a GI50 (BT-549) of 8.82 µM. It also gave a CC50 (BT-549; read-out: LC50) greater than 100 µM, a CC50 (A498) greater than 100 µM and a GI50 (SN12C) of 7.83 µM. It also gave a CC50 (SN12C; read-out: LC50) greater than 100 µM, a GI50 (RPMI-8226) of 3.32 µM and a CC50 (RPMI-8226; read-out: LC50) greater than 100 µM. It also gave a GI50 (OVCAR-8) of 61.4 µM, a CC50 (OVCAR-8; read-out: LC50) greater than 100 µM and a GI50 (NCI-H322M) greater than 100 µM. The CC50 (NCI-H322M; read-out: LC50) was greater than 100 µM, the GI50 (HT29) was 5.32 µM and the CC50 (HT29; read-out: LC50) was greater than 100 µM. The hemolysis at 24 h, 200 µg/mL [1] was 1%, the GI50 (LOX IMVI) was 9.96 µM and the CC50 (LOX IMVI; read-out: LC50, LOX IMVI, 48 h) was 25.7 µM. The GI50 (CCRF-CEM) was 4.02 µM, the CC50 (CCRF-CEM; read-out: LC50) was greater than 100 µM and the GI50 (ACHN) was greater than 100 µM. For the same compound, the CC50 (ACHN; read-out: LC50) was greater than 100 µM, the GI50 (HCT-116) was 7.37 µM and the CC50 (HCT-116; read-out: LC50) was greater than 100 µM. For the same compound, the GI50 (OVCAR-4) was 74.6 µM, the CC50 (OVCAR-4; read-out: LC50) was greater than 100 µM and the GI50 (MOLT-4) was 3.11 µM. For the same compound, the CC50 (MOLT-4; read-out: LC50) was greater than 100 µM, the GI50 (SF-539) was 12 µM and the CC50 (SF-539; read-out: LC50, SF-539, 48 h) was 63.8 µM. It also gave a GI50 (SF-295) of 9.49 µM, a CC50 (SF-295; read-out: LC50) greater than 100 µM and an activity at 10 µM (60 cancer cell lines) of 40.4%. The GI50 (MALME-3M) was 7.34 µM, the CC50 (MALME-3M; read-out: LC50) was greater than 100 µM and the GI50 (COLO 205) was 16.4 µM. It also gave a CC50 (COLO 205; read-out: LC50) greater than 100 µM, a GI50 (UO-31) greater than 100 µM and a CC50 (UO-31; read-out: LC50) greater than 100 µM. The GI50 (PC-3) was 3.84 µM, the CC50 (PC-3; read-out: LC50) was greater than 100 µM and the GI50 (HOP-62) was 99.7 µM. For the same compound, the CC50 (HOP-62; read-out: LC50) was greater than 100 µM.
